This note sets out measurements from patent publication US5369114A, “Biphenylene branched alkyleneoxy quinolines” (Imperial Chemical Industries PLC, priority 1990, dated 1994).

A word on the ED50: it is the dose at which the effect has come halfway, by size or by number of responders. Read a high ED50 as a need for a large dose.

For test [1], the target named is T1, AII receptors (cell surface membrane fraction, guinea pig adrenal gland) (Cavia porcellus, UniProt Q9WV26).
T1 construct: the source of cell surface membranes is the guinea pig adrenal gland; from tissue; host or cells: guinea pig adrenal gland, cell surface membrane fraction
T1 sequence (Q9WV26 1-359): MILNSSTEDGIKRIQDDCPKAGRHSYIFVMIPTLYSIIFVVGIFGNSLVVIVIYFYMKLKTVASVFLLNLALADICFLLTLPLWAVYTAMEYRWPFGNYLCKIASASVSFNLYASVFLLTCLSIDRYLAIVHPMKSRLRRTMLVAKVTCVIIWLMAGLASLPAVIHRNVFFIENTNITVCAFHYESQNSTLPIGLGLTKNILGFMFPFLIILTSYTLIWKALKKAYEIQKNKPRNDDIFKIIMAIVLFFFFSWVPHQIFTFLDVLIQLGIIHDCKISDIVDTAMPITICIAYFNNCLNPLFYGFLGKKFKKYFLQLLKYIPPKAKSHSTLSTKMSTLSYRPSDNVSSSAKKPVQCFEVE
Nature of the test: Test A: displacement of radiolabelled AII binding from guinea pig adrenal membranes. The settings on record: in vitro, read-out: IC50 (concentration for 50% displacement of radiolabelled AII binding). The protocol:
This in vitro procedure involves the incubation of the test compound initially at a concentration of 100 micromolar (or less) in a buffered mixture containing fixed concentrations of radiolabelled AII and a cell surface membrane fraction prepared from a suitable angiotensin target tissue. In this test, the source of cell surface membranes is the guinea pig adrenal gland which is well known to respond to AII. Interaction of the radiolabelled AII with its receptors (assessed as radiolabel bound to the particulate membrane fraction following removal of unbound radiolabel by a rapid filtration procedure such as is standard in such studies) is antagonized by compounds which also bind to the membrane receptor sites and the degree of antagonism (observed in the test as displacement of membrane-bound radioactivity) is determined readily by comparing the receptor-bound radioactivity in the presence of the test compound at the specified test concentration with a control value determined in the absence of the test compound. Using this procedure compounds showing at least 50% displacement of radiolabelled AII binding at a concentration of 10^-4 M are retested at lower concentrations to determine their potency. […]

The subject of test [2] is angiotensin II-induced pressor responses. Nature of the test: Test C: in vivo antagonism of angiotensin II-induced pressor responses in rats. As to conditions: iv, rat, i.v. administration. The protocol:
This in vivo test involves using terminally-anaesthetised or conscious rats in which an arterial catheter has been implanted under anaesthesia for the measurement of changes in blood pressure. The AII antagonistic effects of the test compound following oral or parenteral administration, are assessed against angiotensin II-induced pressor responses. To ensure that the effect is specific, the effect of the test compound on vasopressin-induced pressor responses may also be determined in the same preparation.

With `Cc1cc(OC(C)c2ccc(-c3ccccc3-c3nnn[nH]3)cc2)c2ccccc2n1.Cl` (centres unmarked) [Example 1, 2-methyl-4-[1-(2'-(1H-tetrazol-5-yl)biphenyl-4-yl)ethoxy]quinoline hydrochloride], the IC50 in test [1] is 0.04 µM. Also, the ED50 in test [2] came out at 0.18 mg/kg.
